Patent US11986471B2, “Compounds and methods of use” (Tango Therapeutics, Inc., priority 2018, dated 2024)

What was measured:
PRMT5 [1] = target: T1, PRMT5 (Homo sapiens, UniProt O14744); assay: PRMT5 IC50 assay with no cofactor; assay type: biochemical
T1 construct: purchased Viva (custom protein)
Summary of the method: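 Human PRMT5 inhibition, IC50 in μM; cofactor varied (SAM / MTA / none).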

PRMT5 [2] = target: T1, PRMT5; assay: PRMT5 IC50 assay in the presence of SAM as cofactor; assay type: biochemical
Summary of the method: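 Each compound is tested on PRMT5 in the presence of SAM, of MTA, and without any cofactor. Ki values are then back-calculated using fixed factors of 1.5 (SAM) and 13.5 (MTA), and the two Ki values are compared as a ratio.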

HAP1 MTAP-deleted = assay: SDMA in-cell western assay, HAP1 MTAP-deleted cell line; assay type: cell-based; conditions: for IC50: Homo sapiens, HAP1 MTAP-deleted cell line; for MTAP Intact/Deleted Ratio: IC50 ratio HAP1 MTAP-intact / HAP1 MTAP-deleted
Summary of the method: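 These are IC50 values from an in-cell western measuring SDMA. The HAP1 cells used carry no MTAP, in contrast to the isogenic partner line with endogenous MTAP expression.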

HAP1 MTAP-intact = assay: SDMA in-cell western assay, HAP1 MTAP-intact cell line; assay type: cell-based; conditions: Homo sapiens
Summary of the method: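 Potency reflects cellular SDMA reduction, detected by in-cell western, in HAP1 cells with or without MTAP (endogenous expression versus null).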

PRMT5 [3] = target: T1, PRMT5; assay: PRMT5 IC50 assay in the presence of MTA as cofactor; assay type: biochemical; conditions: for IC50: PRMT5, MTA as cofactor
Summary of the method: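 For the SAM-containing format, dividing IC50 by 1.5 yields Ki; for the MTA-containing format the divisor is 13.5. A third format without cofactor gives IC50 alone.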

[4] = ratio between Ki in the presence of SAM and Ki in the presence of MTA
[5] = ratio between the Ki in the presence of SAM and the Ki in the presence of MTA

T1 sequence (O14744 whole entry): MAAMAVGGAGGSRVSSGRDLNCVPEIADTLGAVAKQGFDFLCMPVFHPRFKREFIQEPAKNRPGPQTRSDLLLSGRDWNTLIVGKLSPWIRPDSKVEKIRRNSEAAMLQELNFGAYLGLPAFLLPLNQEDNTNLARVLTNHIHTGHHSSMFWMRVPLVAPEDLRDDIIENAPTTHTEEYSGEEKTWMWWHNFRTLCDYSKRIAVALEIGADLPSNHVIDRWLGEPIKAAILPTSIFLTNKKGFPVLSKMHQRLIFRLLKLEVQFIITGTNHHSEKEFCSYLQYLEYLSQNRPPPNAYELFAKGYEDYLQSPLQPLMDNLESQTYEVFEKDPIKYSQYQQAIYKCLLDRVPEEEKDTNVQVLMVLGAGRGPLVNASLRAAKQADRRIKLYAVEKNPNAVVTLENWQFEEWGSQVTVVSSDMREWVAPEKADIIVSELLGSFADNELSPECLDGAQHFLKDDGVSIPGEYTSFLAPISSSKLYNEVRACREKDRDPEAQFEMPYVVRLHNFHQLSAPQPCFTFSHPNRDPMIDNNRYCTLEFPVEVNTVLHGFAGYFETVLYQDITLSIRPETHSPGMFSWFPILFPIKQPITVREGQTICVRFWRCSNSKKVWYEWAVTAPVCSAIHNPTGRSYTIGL
T1 sequence (Q9BQA1 whole entry partner): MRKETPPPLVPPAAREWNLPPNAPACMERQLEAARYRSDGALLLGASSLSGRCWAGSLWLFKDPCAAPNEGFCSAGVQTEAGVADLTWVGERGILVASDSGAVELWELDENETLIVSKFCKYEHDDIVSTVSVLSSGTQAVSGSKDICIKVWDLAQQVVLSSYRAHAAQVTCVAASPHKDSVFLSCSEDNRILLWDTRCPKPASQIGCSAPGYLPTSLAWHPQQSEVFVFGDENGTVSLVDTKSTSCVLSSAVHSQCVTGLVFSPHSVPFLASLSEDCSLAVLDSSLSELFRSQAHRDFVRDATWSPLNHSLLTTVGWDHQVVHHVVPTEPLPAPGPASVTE

Row | SMILES | IC50 (PRMT5 [1]; read-out: No Co-factor IC50) [nM] | IC50 (PRMT5 [2]) [nM] | IC50 (HAP1 MTAP-deleted) [nM] | MTAP Intact/Deleted Ratio (HAP1 MTAP-deleted) | IC50 (HAP1 MTAP-intact) [nM] | IC50 (PRMT5 [3]) [nM] | SAM/MTA Ratio (PRMT5 [3]; [4]) | IC50 (PRMT5 [1]) [nM] | SAM/MTA Ratio (PRMT5 [3]; [5])
1 | CC(=O)N1CCC(Nc2cc(C(=O)NC[C@H](O)CN3CCc4c(ccc(OCc5ocnc5C)c4Cl)C3)ncn2)CC1 [Compound 256, (S)-6-((1-acetylpiperidin-4-yl)amino)-N-(3-(5-chloro-6-((4-methyloxazol-5-yl)methoxy)-3N-dihydroisoquinolin-2(1H)-yl)-2-hydroxypropyl)pyrimidine-4-carboxamide] | ≥ 5000 | 50 to 500 | 1000 to 10000 | C* (an IC50 ratio of less than 3 fold between the IC50 in the HAP1 MTAP-intact cell line and the HAP1 MTAP-deleted cell line) | ≥ 10000 | 50 to 500 | A (a Ki ratio greater than or equal to 10 fold between the Ki in the presence of SAM and the Ki in the presence of MTA) |  | 
2 | CC(=O)N1CCC(Nc2cc(C(=O)NC[C@H](O)CN3CCc4cc(OCc5ccnn5C)ccc4C3)ncn2)CC1 [Compound 140, 6-[(1-acetyl-4-piperidyl)amino]-N-[(2S)-2-hydroxy-3-[6-[(2-methylpyrazol-3-yl)methoxy]-3N-dihydro-1H-isoquinolin-2-yl]propyl]pyrimidine-4-carboxamide] | ≥ 5000 | 500 to 5000 | ≥ 10000 | C* (an IC50 ratio of less than 3 fold between the IC50 in the HAP1 MTAP-intact cell line and the HAP1 MTAP-deleted cell line) | ≥ 10000 | 50 to 500 | A (a Ki ratio greater than or equal to 10 fold between the Ki in the presence of SAM and the Ki in the presence of MTA) |  | 
3 | CC(=O)N1CCC(Nc2cc(C(=O)NC[C@H](O)CN3CCc4c(ccc(OCc5cn[nH]c5)c4C)C3)ncn2)CC1 [Compound 253, 6-[(1-acetyl-4-piperidyl)amino]-N-[(2S)-2-hydroxy-3-[5-methyl-6-(1H-pyrazol-4-ylmethoxy)-3,4-dihydro-1H-isoquinolin-2-yl]propyl]pyrimidine-4-carboxamide] | 500 to 5000 | 500 to 5000 | 1000 to 10000 | C* (an IC50 ratio of less than 3 fold between the IC50 in the HAP1 MTAP-intact cell line and the HAP1 MTAP-deleted cell line) | 1000 to 10000 | 50 to 500 | A (a Ki ratio greater than or equal to 10 fold between the Ki in the presence of SAM and the Ki in the presence of MTA) |  | 
4 | CS(=O)(=O)N1CCC(Nc2cc(C(=O)NC[C@H](O)CN3CCc4cc(OCc5cnco5)ccc4C3)ccn2)CC1 [Compound 430, N-[(2S)-2-hydroxy-3-[6-(oxazol-5-ylmethoxy)-3,4-dihydro-1H-isoquinolin-2-yl]propyl]-2-[(1-methylsulfonyl-4-piperidyl)amino]pyridine-4-carboxamide] |  | 50 to 500 | 1000 to 10000 | C* (an IC50 ratio of less than 3 fold between the IC50 in the HAP1 MTAP-intact cell line and the HAP1 MTAP-deleted cell line) | ≥ 10000 | 50 to 500 |  | 500 to 5000 | A (a Ki ratio greater than or equal to 10 fold between the Ki in the presence of SAM and the Ki in the presence of MTA)
5 | CC(=O)N1CCC(Nc2cc(C(=O)NC[C@H](O)CN3CCc4c(ccc(OCc5ocnc5C)c4C)C3)cc(N3CCCCC3)n2)CC1 [Compound 595] |  | 50 to 500 | < 1000 | A* (an IC50 ratio greater than or equal to 10 fold between the IC50 in the HAP1 MTAP-intact cell line and the HAP1 MTAP-deleted cell line) | 1000 to 10000 | < 50 |  | 500 to 5000 | A (a Ki ratio greater than or equal to 10 fold between the Ki in the presence of SAM and the Ki in the presence of MTA)
6 | O=C(NC[C@H](O)CN1CCc2c(ccc(OCc3cnco3)c2Cl)C1)c1ccnc(NC2CC3(C2)CC3(F)F)c1 (stereo partly shown) [Compound 441] |  | 50 to 500 | 1000 to 10000 | C* (an IC50 ratio of less than 3 fold between the IC50 in the HAP1 MTAP-intact cell line and the HAP1 MTAP-deleted cell line) | ≥ 10000 | 50 to 500 |  | 500 to 5000 | A (a Ki ratio greater than or equal to 10 fold between the Ki in the presence of SAM and the Ki in the presence of MTA)
7 | Cc1ncoc1COc1ccc2c(c1)CCN(C[C@@H](O)CNC(=O)c1cc(CC(C)C)nc(NC3CCC3)c1)C2 [Compound 439, 2-(cyclobutylamino)-N-[(2S)-2-hydroxy-3-{6-[(4-methyl-1,3-oxazol-5-yl)methoxy]-1,2,3,4-tetrahydroisoquinolin-2-yl}propyl]-6-(2-methylpropyl)pyridine-4-carboxamide] |  | 50 to 500 | < 1000 | C* (an IC50 ratio of less than 3 fold between the IC50 in the HAP1 MTAP-intact cell line and the HAP1 MTAP-deleted cell line) | 1000 to 10000 | 50 to 500 |  | ≥ 5000 | A (a Ki ratio greater than or equal to 10 fold between the Ki in the presence of SAM and the Ki in the presence of MTA)
8 | Cc1ncoc1COc1ccc2c(c1)CCN(C[C@@H](O)CNC(=O)c1cc(NC3CC4(CC4)C3)nc(N3CCN(C(=O)C4CC4)CC3)c1)C2 [Compound 611, (S)-2-(4-(cyclopropanecarbonyl)piperazin-1-yl)-N-(2-hydroxy-3-(6-((4-methyloxazol-5-yl)methoxy)-3,4-dihydroisoquinolin-2(1H)-yl)propyl)-6-(spiro[2.3]hexan-5-ylamino)isonicotinamide] |  | 50 to 500 | < 1000 | B* (an IC50 ratio greater than or equal to 3 fold but lower than 10 fold between the IC50 in the HAP1 MTAP-intact cell line and the HAP1 MTAP-deleted cell line) | < 1000 | < 50 |  | 50 to 500 | A (a Ki ratio greater than or equal to 10 fold between the Ki in the presence of SAM and the Ki in the presence of MTA)
9 | CC(=O)N1CCN(c2cc(C(=O)NC[C@H](O)CN3CCc4cc(OCc5ocnc5C)c(F)cc4C3)cc(NC3CCC3)n2)CC1 [Compound 615, 2-(4-acetylpiperazin-1-yl)-6-(cyclobutylamino)-N-[(2S)-3-[7-fluoro-6-[(4-methyloxazol-5-yl)methoxy]-3,4-dihydro-1H-isoquinolin-2-yl]-2-hydroxy-propyl]pyridine-4-carboxamide] |  | 50 to 500 | < 1000 | A* (an IC50 ratio greater than or equal to 10 fold between the IC50 in the HAP1 MTAP-intact cell line and the HAP1 MTAP-deleted cell line) | 1000 to 10000 | 50 to 500 |  | 500 to 5000 | A (a Ki ratio greater than or equal to 10 fold between the Ki in the presence of SAM and the Ki in the presence of MTA)
10 | Cc1ncoc1COc1ccc2c(c1)CCN(C[C@@H](O)CNC(=O)c1cc(NC3COC3)nc(N3CCN(C(C)C)CC3)n1)C2 [Compound 492, N-[(2S)-2-hydroxy-3-{6-[(4-methyl-1,3-oxazol-5-yl)methoxy]-1,2,3,4-tetrahydroisoquinolin-2-yl}propyl]-6-[(oxetan-3-yl)amino]-2-[4-(propan-2-yl)piperazin-1-yl]pyrimidine-4-carboxamide] |  | 50 to 500 | 1000 to 10000 | C* (an IC50 ratio of less than 3 fold between the IC50 in the HAP1 MTAP-intact cell line and the HAP1 MTAP-deleted cell line) | 1000 to 10000 | 50 to 500 |  | ≥ 5000 | A (a Ki ratio greater than or equal to 10 fold between the Ki in the presence of SAM and the Ki in the presence of MTA)
11 | COCCN(C)c1nc(NC2COC2)cc(C(=O)NC[C@H](O)CN2CCc3c(ccc(OCc4cnco4)c3Cl)C2)n1 [Compound 314] | 500 to 5000 | 50 to 500 | 1000 to 10000 | C* (an IC50 ratio of less than 3 fold between the IC50 in the HAP1 MTAP-intact cell line and the HAP1 MTAP-deleted cell line) | ≥ 10000 | 50 to 500 | A (a Ki ratio greater than or equal to 10 fold between the Ki in the presence of SAM and the Ki in the presence of MTA) |  | 
12 | O=C(NC[C@H](O)CN1CCc2c(ccc(OCc3cnco3)c2Cl)C1)c1ccnc(NC2CCCC2)c1 [Compound 382, (S)—N-(3-(5-chloro-6-(oxazol-5-ylmethoxy)-3,4-dihydroisoquinolin-2(1H)-yl)-2-hydroxypropyl)-2-(cxclopentylamino)isonicotinamide] | 500 to 5000 | 50 to 500 | ≥ 10000 | C* (an IC50 ratio of less than 3 fold between the IC50 in the HAP1 MTAP-intact cell line and the HAP1 MTAP-deleted cell line) | ≥ 10000 | 50 to 500 | A (a Ki ratio greater than or equal to 10 fold between the Ki in the presence of SAM and the Ki in the presence of MTA) |  | 
13 | CC(=O)N1CCC(Nc2cc(C(=O)NC[C@H](O)CN3CCc4nc(OCc5cnco5)ccc4C3)ncn2)CC1 [Compound 412, 6-[(1-acetyl-4-piperidyl)amino]-N-[(2S)-2-hydroxy-3-[2-(oxazol-5-ylmethoxy)-7,8-dihydro-5H-1,6-naphthyridin-6-yl]propyl]pyrimidine-4-carboxamide] | ≥ 5000 | 500 to 5000 | ≥ 10000 | C* (an IC50 ratio of less than 3 fold between the IC50 in the HAP1 MTAP-intact cell line and the HAP1 MTAP-deleted cell line) | ≥ 10000 | 50 to 500 | A (a Ki ratio greater than or equal to 10 fold between the Ki in the presence of SAM and the Ki in the presence of MTA) |  | 
